Test results reported in patent publication US7964531B2, “3-phenoxy-4-pyridazinol derivatives and herbicidal composition containing the same” (Mitsui Chemicals Agro, Inc., priority 2001, dated 2011).

Columns and labels:
Type in all cases: in vivo
[1] = system: barnyardgrass (Echinochloa oryzicola Vasing.); test: Test Example 1: herbicidal effects, paddy-field pot test; conditions: wettable powder applied 3 days after transplanting, judged after 25 days
In short: (§1)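 Paddy-soil pots sown with weed seeds, germinated Cyperus serotinus tubers and 2.2-leaf rice transplants, kept flooded in a greenhouse. Wettable powder diluted in water applied at set dosage 3 days after transplanting. Weed control and rice injury scored 25 days later on a 0-5 growth-inhibition scale.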

[2] = system: Scirpus joncoides; test: as above; conditions: wettable powder applied 3 days after transplanting, judged after 25 days
In short: as §1

[3] = system: Cyperus serotinus; test: as above; conditions: wettable powder applied 3 days after transplanting, judged after 25 days
In short: as §1

[4] = system: annual broad-leaved weeds (Lindernia spp., Rotala indica); test: as above; conditions: wettable powder applied 3 days after transplanting, judged after 25 days
In short: as §1

[5] = system: barnyardgrass; test: Test Example 2: herbicidal effects (soil treatment); conditions: dosage 5 kg/a; soil treatment the day after seeding; judged after 21 days
From the text: (§2) Judgment Standard • 0: Growth inhibition rate; 0 to 10% • 1: Growth inhibition rate; 11 to 30% • 2: Growth inhibition rate; 31 to 50% • 3: Growth inhibition rate; 51 to 70% • 4: Growth inhibition rate; 71 to 90% • 5: Growth inhibition rate; 91 to 100%.
(§3) Upland soil was filled in 150 cm^2 pot, and seeds of barnyardgrass and indian mustard (Brassica juncea (L.) Czern. et Coss) were sowed, and grown in a greenhouse. At the next day of seeding, a predetermined chemical dosage of the wettable powder prepared in accordance with Preparation example 1 was diluted in water and applied to soil surface. After 21 days from the treatment, herbicidal effects were judged in accordance with the judgment standard of Test example 1, and the results were shown in Table 3.

[6] = system: indian mustard (Brassica juncea (L.) Czern. et Coss); test: as above; conditions: dosage 5 kg/a; soil treatment the day after seeding; judged after 21 days
From the text: as §2, §3

[7] = system: transplanted paddy-field rice; test: Test Example 1: crop injury against transplanted paddy-field rice; conditions: wettable powder applied 3 days after transplanting, judged after 25 days
In short: as §1

[8] = system: barnyardgrass; test: Test Example 5: herbicidal effects, upland (soil treatment); conditions: after 21 days
Procedure: (§4) Upland soil was filled in 150 cm^2 pot, and seeds of barnyardgrass, Cyperus esculentus L., velvetleaf, black nightshade, tall morningglory and corn were sowed, and grown in a greenhouse. At the next day of seeding, a predetermined chemical dosage of the wettable powder prepared in accordance with Preparation example 5 was diluted with water and applied to soil surface. After 21 days from the treatment, herbicidal effects and crop injury against corn were judged according to the following judgment standard, and the results were shown in Tables 6 to 8.
(§5) Judgment Standard • 0: Growth inhibition rate; 0 to 9% • 1: Growth inhibition rate; 10 to 19% • 2: Growth inhibition rate; 20 to 29% • 3: Growth inhibition rate; 30 to 39% • 4: Growth inhibition rate; 40 to 49% • 5: Growth inhibition rate; 50 to 59% • 6: Growth inhibition rate; 60 to 69% • 7: Growth inhibition rate; 70 to 79% • 8: Growth inhibition rate; 80 to 89% • 9: Growth inhibition rate; 90 to 98% • 10: Growth inhibition rate; 99 to 100%.

[9] = system: velvetleaf; test: as above; conditions: after 21 days
Procedure: as §4, §5

[10] = system: black nightshade; test: as above; conditions: after 21 days
Procedure: as §4, §5

[11] = system: tall morningglory; test: as above; conditions: after 21 days
Procedure: as §4, §5

[12] = system: annual broad-leaved weeds (Lindernia spp. and Rotala indica); test: Test Example 4: herbicidal effects of mixed wettable powder, paddy-field pot test; conditions: no second compound, after 25 days
Procedure: (§6) Paddy filed soil was filled in 1/5000 are Wagner pot, seeds of barnyardgrass (Echinochloa oryzicola Vasing.), Scirpus joncoides and annual broad-leaved weeds (Lindernia spp. and Rotala indica) which are awaken from dormancy were mixed at the surface layer of 1 cm. Also, tubers of Cyperus serotinus, Sagittaria pygmaea and Eleocharis kuroguwai which are awaken from dormancy were planted, and further seedlings of paddy-field rice at 2.2-leaf stage were transplanted and they were grown under the flooded condition in a greenhouse. After 3 days from the transplanting, a predetermined chemical dosage of the wettable powder prepared in accordance with Preparation example 5 was diluted with water, and applied to the pot. After 25 days, herbicidal effects and crop injury against transplanted paddy-field rice were judged according to the following judgment standard, and the results were shown in Table 5. Incidentally, “-” in the table means a composition containing no effective ingredient.
(§7) Judgment Standard • 0: Growth-inhibition rate; 0 to 15% • 1: Growth inhibition rate; 16 to 35% • 2: Growth inhibition rate; 36 to 55% • 3: Growth inhibition rate; 56 to 75% • 4: Growth inhibition rate; […] • 5: Growth inhibition rate; 96 to 100%.

[13] = system: Eleocharis kuroguwai; test: as above; conditions: no second compound, after 25 days
Procedure: as §6, §7

[14] = system: barnyardgrass (Echinochloa oryzicola Vasing.); test: as above; conditions: no second compound, after 25 days
Procedure: as §6, §7

[15] = system: Sagittaria pygmaea; test: as above; conditions: no second compound, after 25 days
Procedure: as §6, §7

[16] = system: Scirpus joncoides; test: as above; conditions: no second compound, after 25 days
Procedure: as §6, §7

[17] = system: Cyperus serotinus; test: as above; conditions: no second compound, after 25 days
Procedure: as §6, §7

[18] = system: transplanted paddy-field rice; test: Test Example 4: crop injury against transplanted paddy-field rice; conditions: no second compound, after 25 days
Procedure: as §6, §7

SMILES | Herbicidal effects Barnyard grass ([1]; chemical dosage 10 g/a) | Herbicidal effects Barnyard grass ([1]; chemical dosage 20 g/a) | Herbicidal effects Scirpus joncoides ([2]; chemical dosage 10 g/a) | Herbicidal effects Scirpus joncoides ([2]; chemical dosage 20 g/a) | Herbicidal effects Cyperus serotinus ([3]; chemical dosage 10 g/a) | Herbicidal effects Cyperus serotinus ([3]; chemical dosage 20 g/a) | Herbicidal effects Broad leaf ([4]; chemical dosage 10 g/a) | Herbicidal effects Broad leaf ([4]; chemical dosage 20 g/a) | Herbicidal effects Barnyard-grass [5] | Herbicidal effects indian mustard [6] | Crop injury against transplanted rice ([7]; chemical dosage 10 g/a) | Crop injury against transplanted rice ([7]; chemical dosage 20 g/a) | also measured
Oc1cc(Cl)nnc1Oc1c(Br)ccc2ccoc12 [Example 309] | 4 (Growth inhibition rate; 71 to 90%) | 5 (Growth inhibition rate; 91 to 100%) | 5 (Growth inhibition rate; 91 to 100%) | 5 (Growth inhibition rate; 91 to 100%) | 5 (Growth inhibition rate; 91 to 100%) | 5 (Growth inhibition rate; 91 to 100%) | 5 (Growth inhibition rate; 91 to 100%) | 5 (Growth inhibition rate; 91 to 100%) | 5 (Growth inhibition rate; 91 to 100%) | 5 (Growth inhibition rate; 91 to 100%) | 2 (Growth inhibition rate; 31 to 50%) | 5 (Growth inhibition rate; 91 to 100%) | –
CS(=O)(=O)c1cc(C(F)(F)F)ccc1C(=O)c1cnoc1C1CC1 [Compound D, 5-cyclopropyl-1,2-oxazol-4-yl α,α,α-trifluoro-2-mesyl-p-tolyl ketone] | – | – | – | – | – | – | – | – | – | – | – | – | Herbicidal effects Barnyard grass ([8]; D alone 6.3 g/ha): 3 (Growth inhibition rate; 30 to 39%); Herbicidal effects Barnyard grass ([8]; D alone 12.5 g/ha): 10 (Growth inhibition rate; 99 to 100%); Herbicidal effects Barnyard grass ([8]; D alone 25 g/ha): 10 (Growth inhibition rate; 99 to 100%); Herbicidal effects Velvetleaf ([9]; D alone 6.3 g/ha): 6 (Growth inhibition rate; 60 to 69%); Herbicidal effects Velvetleaf ([9]; D alone 12.5 g/ha): 7 (Growth inhibition rate; 70 to 79%); Herbicidal effects Velvetleaf ([9]; D alone 25 g/ha): 9 (Growth inhibition rate; 90 to 98%); Herbicidal effects Black Nightshade ([10]; D alone 6.3 g/ha): 5 (Growth inhibition rate; 50 to 59%); Herbicidal effects Black Nightshade ([10]; D alone 12.5 g/ha): 9 (Growth inhibition rate; 90 to 98%); Herbicidal effects Black Nightshade ([10]; D alone 25 g/ha): 9 (Growth inhibition rate; 90 to 98%); Herbicidal effects Tall Morningglory ([11]; D alone 6.3 g/ha): 2 (Growth inhibition rate; 20 to 29%); Herbicidal effects Tall Morningglory ([11]; D alone 12.5 g/ha): 0 (Growth inhibition rate; 0 to 9%); Herbicidal effects Tall Morningglory ([11]; D alone 25 g/ha): 5 (Growth inhibition rate; 50 to 59%)
Cc1cccc(I)c1Oc1nnc(Cl)cc1O [Example 256] | 3 (Growth inhibition rate; 51 to 70%) | 4 (Growth inhibition rate; 71 to 90%) | 5 (Growth inhibition rate; 91 to 100%) | 5 (Growth inhibition rate; 91 to 100%) | 5 (Growth inhibition rate; 91 to 100%) | 5 (Growth inhibition rate; 91 to 100%) | 5 (Growth inhibition rate; 91 to 100%) | 5 (Growth inhibition rate; 91 to 100%) | 3 (Growth inhibition rate; 51 to 70%) | 5 (Growth inhibition rate; 91 to 100%) | 2 (Growth inhibition rate; 31 to 50%) | 3 (Growth inhibition rate; 51 to 70%) | –
Cc1ccc2ccoc2c1Oc1nnc(Cl)cc1O [Example 310] | 4 (Growth inhibition rate; 71 to 90%) | 5 (Growth inhibition rate; 91 to 100%) | 5 (Growth inhibition rate; 91 to 100%) | 5 (Growth inhibition rate; 91 to 100%) | 5 (Growth inhibition rate; 91 to 100%) | 5 (Growth inhibition rate; 91 to 100%) | 5 (Growth inhibition rate; 91 to 100%) | 5 (Growth inhibition rate; 91 to 100%) | 5 (Growth inhibition rate; 91 to 100%) | 5 (Growth inhibition rate; 91 to 100%) | 0 (Growth inhibition rate; 0 to 10%) | 0 (Growth inhibition rate; 0 to 10%) | –
Cc1cc(C)c(C2CC2)c(Oc2nnc(Cl)cc2O)c1 [Example 288] | 0 (Growth inhibition rate; 0 to 10%) | 1 (Growth inhibition rate; 11 to 30%) | 5 (Growth inhibition rate; 91 to 100%) | 5 (Growth inhibition rate; 91 to 100%) | 5 (Growth inhibition rate; 91 to 100%) | 5 (Growth inhibition rate; 91 to 100%) | 5 (Growth inhibition rate; 91 to 100%) | 5 (Growth inhibition rate; 91 to 100%) | – | – | 0 (Growth inhibition rate; 0 to 10%) | 0 (Growth inhibition rate; 0 to 10%) | Herbicidal effects Broad leaf ([12]; derivative 5 g/a): 5 (Growth inhibition rate; 96 to 100%); Herbicidal effects Broad leaf ([12]; derivative 10 g/a): 5 (Growth inhibition rate; 96 to 100%); Herbicidal effects Eleocharis kuroguwai ([13]; derivative 5 g/a): 2 (Growth inhibition rate; 36 to 55%); Herbicidal effects Eleocharis kuroguwai ([13]; derivative 10 g/a): 3 (Growth inhibition rate; 56 to 75%); Herbicidal effects Barnyard grass ([14]; derivative 5 g/a): 0 (Growth-inhibition rate; 0 to 15%); Herbicidal effects Barnyard grass ([14]; derivative 10 g/a): 0 (Growth-inhibition rate; 0 to 15%); Herbicidal effects Sagittaria pygmaea ([15]; derivative 5 g/a): 5 (Growth inhibition rate; 96 to 100%); Herbicidal effects Sagittaria pygmaea ([15]; derivative 10 g/a): 5 (Growth inhibition rate; 96 to 100%); Herbicidal effects Scirpus joncoides ([16]; derivative 5 g/a): 5 (Growth inhibition rate; 96 to 100%); Herbicidal effects Scirpus joncoides ([16]; derivative 10 g/a): 5 (Growth inhibition rate; 96 to 100%); Herbicidal effects Cyperus serotinus ([17]; derivative 5 g/a): 4 (Growth inhibition rate; 7.6 to 95%); Herbicidal effects Cyperus serotinus ([17]; derivative 10 g/a): 5 (Growth inhibition rate; 96 to 100%); Crop injury against transplanted rice ([18]; derivative 5 g/a): 0 (Growth-inhibition rate; 0 to 15%); Crop injury against transplanted rice ([18]; derivative 10 g/a): 0 (Growth-inhibition rate; 0 to 15%)
